Assay results taken from patent US20140303164A1, “THERAPEUTIC COMPOUNDS” (Gilead Sciences, Inc., priority 2013, published 2014).

Columns and labels:
[1] = system: HIV-IIIb; test: Test A: Antiviral Assay in MT4 Cells; type: cell-based, HIV-1; details: Human immunodeficiency virus 1, IIIB, MT4, 120 h; for inhibition at 0.2 µM: read-out: % inhibition at 0.2 μM; for inhibition at 2 µM: read-out: % inhibition at 2 μM
Protocol: Test A: Antiviral Assay in MT4 Cells
MT-4 cells were next mixed with HIV-IIIb at an m.o.i of 0.003 for 1 hour, after which time 35 μL of virus/cell mixture (2000 cells) was immediately added to each well containing 40 μL of diluted compound. The plates were then incubated at 37° C. for 5 days. […] Cell lysis was carried out by incubating at room temperature for 10 min and then chemiluminescence was read.

[2] = Test B: Cytotoxicity Assay; type: cell-based; details: human, uninfected MT-4 cells, same protocol as Test A
Method in brief: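 Uninfected MT-4 cells (2000 per well) incubated with diluted compound at 37° C. for 5 days, following the antiviral protocol without HIV-IIIb.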

SMILES | inhibition at 0.2 µM [1] [%] | inhibition at 2 µM [1] [%] | CC50 at 5 days [2] [µM]
Cn1nc(NS(C)(=O)=O)c2c(Cl)ccc(-c3ccc(C#CC(C)(O)CF)nc3[C@H](Cc3cc(F)cc(F)c3)NC(=O)Cn3nc(C(F)(F)F)c4c3C(F)(F)[C@@H]3C[C@H]43)c21 (stereo partly drawn) [Compound 152, N-((1S)-1-(3-(4-chloro-1-methyl-3-(methylsulfonamido)-1H-indazol-7-yl)-6-(4-fluoro-3-hydroxy-3-methylbut-1-yn-1-yl)pyridin-2-yl)-2-(3,5-difluorophenyl)ethyl)-2-((3b-S,4aR)-5,5-difluoro-3-(trifluoromethyl)-3b,4,4a,5-tetrahydro-1H-cyclopropa[3,4]cyclopenta[1,2-c]pyrazol-1-yl)acetamide] | 89 | 89 | 11.9
Cn1nc(NS(N)(=O)=O)c2c(Cl)ccc(-c3ccc(C#CC(C)(C)O)nc3[C@H](Cc3cc(F)cc(F)c3)NC(=O)Cn3nc(C(F)F)c4c3C(F)(F)[C@@H]3C[C@H]43)c21 [Compound 70, N—((S)-1-(3-(4-chloro-1-methyl-3-(sulfamoylamino)-1H-indazol-7-yl)-6-(3-hydroxy-3-methylbut-1-yn-1-yl)pyridin-2-yl)-2-(3,5-difluorophenyl)ethyl)-2-((3b-S,4aR)-3-(difluoromethyl)-5,5-difluoro-3b,4,4a,5-tetrahydro-1H-cyclopropa[3,4]cyclopenta[1,2-c]pyrazol-1-yl)acetamide] | 94 | 94 | 9.98
CC(C)(O)C#Cc1ccc(-c2ccc(Cl)c3c(NS(C)(=O)=O)n[nH]c23)c([C@H](Cc2cc(F)cc(F)c2)NC(=O)Cn2nc(C(F)F)c3c2C(F)(F)[C@@H]2C[C@H]32)n1 [Compound 108C, N—((S)-1-(3-(4-chloro-3-(methylsulfonamido)-1H-indazol-7-yl)-6-(3-hydroxy-3-methylbut-1-yn-1-yl)pyridin-2-yl)-2-(3,5-difluorophenyl)ethyl)-2-((3b-S,4aR)-3-(difluoromethyl)-5,5-difluoro-3b,4,4a,5-tetrahydro-1H-cyclopropa[3,4]cyclopenta[1,2-c]pyrazol-1-yl)acetamide] | 94 | 94 | > 53.1
Cn1ncc2c(Cl)ccc(-c3ccc(C#CC(C)(C)O)nc3[C@H](Cc3cc(F)cc(F)c3)NC(=O)Cn3nc(C(F)F)c4c3C(F)(F)[C@@H]3C[C@H]43)c21 [Compound 137C, N—((S)-1-(3-(4-chloro-1-methyl-1H-indazol-7-yl)-6-(3-hydroxy-3-methylbut-1-yn-1-yl)pyridin-2-yl)-2-(3,5-difluorophenyl)ethyl)-2-((3b-S,4aR)-3-(difluoromethyl)-5,5-difluoro-3b,4,4a,5-tetrahydro-1H-cyclopropa[3,4]cyclopenta[1,2-c]pyrazol-1-yl)acetamide] | 93 | 100 | 7.88
Cn1nc(NS(C)(=O)=O)c2c(Cl)ccc(-c3cc(C(N)=O)cnc3[C@H](Cc3cc(F)cc(F)c3)NC(=O)Cn3nc(C(F)F)c4c3C(F)(F)[C@@H]3C[C@H]43)c21 [Compound 186D, 5-(4-chloro-1-methyl-3-(methylsulfonamido)-1H-indazol-7-yl)-6-((S)-1-(2-((3bS,4aR)-3-(difluoromethyl)-5,5-difluoro-3b,4,4a,5-tetrahydro-1H-cyclopropa[3,4]cyclopenta[1,2-c]pyrazol-1-yl)acetamido)-2-(3,5-difluorophenyl)ethyl)nicotinamide] | 87 | 87 | 1.52
Cn1nc(NS(N)(=O)=O)c2cccc(-c3ccc(C#CC(C)(C)O)nc3[C@H](Cc3cc(F)cc(F)c3)NC(=O)Cn3nc(C(F)F)c4c3C(F)(F)[C@@H]3C[C@H]43)c21 [Compound 54, 2-((3b-S,4aR)-3-(difluoromethyl)-5,5-difluoro-3b,4,4a,5-tetrahydro-1H-cyclopropa[3,4]cyclopenta[1,2-c]pyrazol-1-yl)-N—((S)-2-(3,5-difluorophenyl)-1-(6-(3-hydroxy-3-methylbut-1-yn-1-yl)-3-(1-methyl-3-(sulfamoylamino)-1H-indazol-7-yl)pyridin-2-yl)ethyl)acetamide] | 98 | 98 | 8.08
Cc1c(-c2ccc(C#CC(C)(C)O)nc2[C@H](Cc2cc(F)cc(F)c2)NC(=O)Cn2nc(C(F)(F)F)c3c2C(F)(F)[C@@H]2C[C@H]32)ccc2n[nH]c(=O)n12 [Compound 27G, 2-((3bS,4aR)-5,5-difluoro-3-(trifluoromethyl)-3b,4,4a,5-tetrahydro-1H-cyclopropa[3,4]cyclopenta[1,2-c]pyrazol-1-yl)-N—((S)-2-(3,5-difluorophenyl)-1-(6-(3-hydroxy-3-methylbut-1-yn-1-yl)-3-(5-methyl-3-oxo-2,3-dihydro-[1,2,4]triazolo[4,3-a]pyridin-6-yl)pyridin-2-yl)ethyl)acetamide] | 89 | 89 | 10.4
Cn1nc(NC(=O)N2CCOCC2)c2cccc(-c3ccc(C#CC(C)(C)O)nc3[C@H](Cc3cc(F)cc(F)c3)NC(=O)Cn3nc(C(F)(F)F)c4c3C(F)(F)[C@@H]3C[C@H]43)c21 [Compound 52, N-(7-(2-((S)-1-(2-((3bS,4aR)-5,5-difluoro-3-(trifluoromethyl)-3b,4,4a,5-tetrahydro-1H-cyclopropa[3,4]cyclopenta[1,2-c]pyrazol-1-yl)acetamido)-2-(3,5-difluorophenyl)ethyl)-6-(3-hydroxy-3-methylbut-1-yn-1-yl)pyridin-3-yl)-1-methyl-1H-indazol-3-yl)morpholine-4-carboxamide] | 92 | 93 | 31.8
CC(C(=O)N[C@@H](Cc1cc(F)cc(F)c1)c1nc(C#CC(C)(C)O)ccc1-c1ccc(Cl)c2c(NS(C)(=O)=O)nn(C)c12)c1ccccc1 (stereo partly drawn) [Compound 195, N—((S)-1-(3-(4-chloro-1-methyl-3-(methylsulfonamido)-1H-indazol-7-yl)-6-(3-hydroxy-3-methylbut-1-yn-1-yl)pyridin-2-yl)-2-(3,5-difluorophenyl)ethyl)-2-phenylpropanamide] | 88 | 90 | 11.2
Cn1nc(NCC#N)c2c(Cl)ccc(-c3ccc(C#CC(C)(C)O)nc3[C@H](Cc3cc(F)cc(F)c3)NC(=O)Cn3nc(C(F)F)c4c3C(F)(F)[C@@H]3C[C@H]43)c21 [Compound 93, N—((S)-1-(3-(4-chloro-3-((cyanomethyl)amino)-1-methyl-1H-indazol-7-yl)-6-(3-hydroxy-3-methylbut-1-yn-1-yl)pyridin-2-yl)-2-(3,5-difluorophenyl)ethyl)-2-((3b-S,4aR)-3-(difluoromethyl)-5,5-difluoro-3b,4,4a,5-tetrahydro-1H-cyclopropa[3,4]cyclopenta[1,2-c]pyrazol-1-yl)acetamide] | 92 | 92 | 4.81
Cn1nc(NS(C)(=O)=O)c2c(Cl)ccc(-c3ccc(C#CC(C)(C)O)nc3[C@H](Cc3cc(F)cc(F)c3)NC(=O)Cn3nc(C(F)(F)F)cc3C3CC3)c21 [Compound 191, (S)—N-(1-(3-(4 chloro-1-methyl-3-(methylsulfonamido)-1H-indazol-7-yl)-6-(3-hydroxy-3-methylbut-1-yn-1-yl)pyridin-2-yl)-2-(3,5-difluorophenyl)ethyl)-2-(5-cyclopropyl-3-(trifluoromethyl)-1H-pyrazol-1-yl)acetamide] | 91 | 91 | 10.1
Cn1nc(NC(=O)NC2CC2)c2cccc(-c3ccc(C#CC(C)(C)O)nc3[C@H](Cc3cc(F)cc(F)c3)NC(=O)Cn3nc(C(F)(F)F)c4c3C(F)(F)[C@@H]3C[C@H]43)c21 [Compound 50, N—((S)-1-(3-(3-(3-cyclopropylureido)-1-methyl-1H-indazol-7-yl)-6-(3-hydroxy-3-methylbut-1-yn-1-yl)pyridin-2-yl)-2-(3,5-difluorophenyl)ethyl)-2-((3b-S,4aR)-5,5-difluoro-3-(trifluoromethyl)-3b,4,4a,5-tetrahydro-1H-cyclopropa[3,4]cyclopenta[1,2-c]pyrazol-1-yl)acetamide] | 95 | 96 | 11.7
Cn1nc(NS(C)(=O)=O)c2c(Cl)ccc(-c3ccc(C#CC(C)(C)O)nc3[C@H](Cc3cc(F)cc(F)c3)NC(=O)Cn3nc(C(F)F)c4c3C(F)(F)CCC4(F)F)c21 [Compound 82, (S)—N-(1-(3-(4 chloro-1-methyl-3-(methylsulfonamido)-1H-indazol-7-yl)-6-(3-hydroxy-3-methylbut-1-yn-1-yl)pyridin-2-yl)-2-(3,5-difluorophenyl)ethyl)-2-(3-(difluoromethyl)-4,4,7,7-tetrafluoro-4,5,6,7-tetrahydro-1H-indazol-1-yl)acetamide] | 99 | 99 | 9.7
Cn1nccc1-c1ccc(-c2ccc(Cl)c3c(NS(C)(=O)=O)nn(C)c23)c([C@H](Cc2cc(F)cc(F)c2)NC(=O)Cn2nc(C(F)(F)F)c3c2C(F)(F)[C@@H]2C[C@H]32)n1 [Compound 175, N—((S)-1-(3-(4-chloro-1-methyl-3-(methylsulfonamido)-1H-indazol-7-yl)-6-(1-methyl-1H-pyrazol-5-yl)pyridin-2-yl)-2-(3,5-difluorophenyl)ethyl)-2-((3b-S,4aR)-5,5-difluoro-3-(trifluoromethyl)-3b,4,4a,5-tetrahydro-1H-cyclopropa[3,4]cyclopenta[1,2-c]pyrazol-1-yl)acetamide] | 95 | 95 | > 46.1
